# Read-outs that look alike come from different tables or passages of the source.
# Tests used:
# H3K4 methylation = test: Histone extraction and detection of global H3K4 methylation in treated adult worms; format: cell-based, Schistosoma mansoni; conditions: sub-lethal concentration 0.0024 μM, male and female adult worms
# S. mansoni schistosomula = test: 72 hours schistosomula drug screen; format: cell-based, Schistosoma mansoni; conditions: for Selectivity Index Schistosomula: HepG2 CC50 over schistosomula EC50; for EC50: Schistosoma mansoni
# Method: Biological Screening 72 Hours Schistosomula Drug Screen […] G. Colley, […], Schistosoma mansoni: simplified method for the production of schistosomules., Exp. Parasitol. 35 (1974) 44-51. Newly transformed schistosomula were prepared for 72 hour high throughput screening (HTS) in 384-well black-sided microtiter plates (Perkin Elmer, MA, USA) as described in M. Nur-e-alam, M. Yousaf, […]. Bari, H. A. Ghabbour, […]. Ho, A. J. […], Neoclerodane Diterpenoids from […], Teucrium […]. Nat. […] The data obtained in this manner is shown in Table 1 in the columns labelled “Phenotype”, “Motility” and “Schistosomula average”.
# S. mansoni adult worms = test: Adult worm drug screen (WHO scoring, WormassayGP2); format: cell-based, Schistosoma mansoni
# From the text: Mice (MF-1 mice, Harlan, UK), infected 7 weeks previously with 180 cercaria, were euthanised with an intraperitoneal injection of phenobarbital/heparin solution. Adult worms were recovered by perfusion of the portal system and subjected to drug screening as previously described in Padalino G, Ferla S, Brancale A, Chalmers I W, Hoffmann K F. Int J Parasitol Drugs Drug Resist. 2018 December; 8(3):559-570; in Whiteland H L, Chakroborty A, Forde-Thomas J E, Crusco A, Cookson A, Hollinshead J, Fenn C A, Bartholomew B, Holdsworth P A, Fisher M, Nash R J, Hoffmann K F. Int J Parasitol Drugs Drug Resist. 2018 December; 8(3):465-474; and in Crusco A, Bordoni C, Chakroborty A, Whatley K C L, Whiteland H, Westwell A D, Hoffmann K F. Eur J Med Chem. 2018 May 25; 152:87-100. The data obtained in this manner is shown in Table 1 in the columns labelled “Adult worm”.
# Regarding the quantification of drug treatment on adult worms (e.g. decreased activity, paralysis or sluggishness), two different approaches were used, as described below. Where egg deposition was noticed, eggs were removed and counted using a Sedgewick rafter slide.
# Adult worms were scored using the standardized microscopic WHO-TDR scoring system previously described by Ramirez, B., Bickle, Q., Yousif, F., Fakorede, F., Mouries, M.-A., Nwaka, S. in Schistosomes: Challenges in compound screening, Expert Opin Drug Discov. 2007 October; 2(s1): S53-61. This scoring system (0-4) identifies changes in worm movement and is defined according to the following scoring matrix: 0=no movement, 1=no movement with visible gut peristalsis, 2=minimal movement (occasional movement from anterior or posterior end of the worm), 3=slow continuous movement and 4=normal movement.
# A digital image processing-based system was also used to assess parasite motility after drug treatment and is a modification of methods previously described by Marcellino C., Gut, J., Lim, K., Singh R., McKerrow, L. and Sakanari, J. WormAssay: a novel computer application for whole-plate motion-based screening of macroscopic parasites. PLoS Negl Trop Dis. 2012 January:6(1):e1494. This allowed for objective verification of the WHO method described above. The data obtained with this quantification method is shown in Table 1 in the columns labelled “Adult worm”.
# B. cereus = test: In vitro antibacterial activity; format: cell-based; conditions: Bacillus cereus; B. cereus; read-out: MIC90
# MRSA USA 300 = test: In vitro antibacterial activity; format: cell-based; conditions: Staphylococcus aureus
# [1] = system: Pseudomonas aeruginosa ATCC 27853; test: In vitro antibacterial activity; format: cell-based; conditions: Pseudomonas aeruginosa, ATCC27853
# E. coli ATCC 25922 = test: In vitro antibacterial activity; format: cell-based; conditions: Escherichia coli, ATCC25922
# [2] = system: F. hepatica newly excysted juveniles (NEJs); test: Newly excysted juveniles (NEJs) drug screen; format: cell-based, Fasciola hepatica; design: scale not given here; conditions: 10 μM, 72 h; higher score indicates lower worm activity
# Method: Newly Excysted Juveniles (NEJs) Drug Screen
# F. hepatica (Italian strain) metacercariae were obtained from Ridgeway Research, Gloucestershire, UK and stored at 4° C. Newly excysted juveniles (NEJs) from metacercariae were produced based on an optimisation introduced to the excystment method published by Dixon et al. and Wilson et al (Dixon, K. E., The physiology of excystment of the metacercaria of Fasciola hepática L. Parasitology, 1966, 56, 431-456.; Wilson, L. R., Good, R. T., Panaccio, M., Wijffels, G. L., Sandeman, R. M., Spithill, T. W, Fasciola hepatica: Characterization and Cloning of the Major Cathepsin B Protease Secreted by Newly Excysted Juvenile Liver Fluke. Experimental Parasitology 1998, 88, 85-94).
# After excystment, NEJs were distributed into a 24 well tissue culture plate at a density of 25 parasites per well containing 1 mL of pre-warmed NEJs culture media. Compounds were added to respective wells and NEJ/compound co-cultures were incubated at 37° C. in an atmosphere containing 5% CO2 for 72 hours at a final concentration of 10 μM.
# F. hepatica NEJs (25 per well) were incubated with the three compounds at a concentration of 10 μM (in 0.1% DMSO) and cultured for 72 hrs at 37° C. in an atmosphere containing 5% CO2. Control wells (25 NEJs per well) included those containing 0.1% DMSO (solvent) and RMPI (media) as negative controls or 10 μM Triclabendazole (0.1% DMSO, as positive control, labelled “Tbz” (Comp. 3). After 72 hrs, all NEJs were scored for phenotype and motility metrics. For each treatment, an average of both phenotype and motility score was calculated based on the individual parasite scores (across two independent replicates), wherein a higher score indicates lower worm activity. SD is reported on the bar chart.
# [3] = system: M. smegmatis mc^2 15 ATCC 700084; test: In vitro antibacterial activity; format: cell-based, Mycobacterium smegmatis; conditions: Mycolicibacterium smegmatis, ATCC700084
# [4] = system: Streptococcus pneumoniae 21394; test: Antibacterial MIC (ISO 20776-1); format: cell-based; conditions: Streptococcus pneumoniae, 21394
# From the text: (§1) In vitro Determination of Antibacterial Activity
# (§2) Scientific Reports 8 (1), 2018. Bacterial strains of Enterococcus faecalis—ATCC 29212, NCTC 12201, ATCC 51299; Streptococcus pneumoniae—ATCC 49619, 18778, 21394, 21395; Haemophilus influenza—ATCC 49766, 18391, 17428; Staphylococcus aureus—NCTC 12493, ATCC BAA-077, ATCC 700698, 11051; used for testing the compounds, as previously described in “Clinical laboratory testing and in vitro diagnostics test systems—Susceptibility testing of infectious agents and evaluation of performance of antimicrobial susceptibility devices—Part 1: Reference methods for testing the in vitro activity of antimicrobial agentes against bacteria involved in infectious diseases, ISO/FDIS 20776-1:2006(E). All the procedures were carried out in a biosafety containment level 2.
# [5] = system: Streptococcus pneumoniae 21395; test: Antibacterial MIC (ISO 20776-1); format: cell-based; conditions: Streptococcus pneumoniae, 21395
# From the text: as §1, §2
# [6] = system: Staphylococcus aureus ATCC BAA-977; test: Antibacterial MIC (ISO 20776-1); format: cell-based; conditions: Staphylococcus aureus, ATCCBAA977
# From the text: as §1, §2
# [7] = system: Haemophilus influenzae 18391; test: Antibacterial MIC (ISO 20776-1); format: cell-based; conditions: Haemophilus influenzae 18391, AMP/COA resistance, PBP/β-lactamase
# From the text: as §1, §2
# [8] = system: Staphylococcus aureus NCTC 12493; test: Antibacterial MIC (ISO 20776-1); format: cell-based; conditions: Staphylococcus aureus, NCTC12493
# From the text: as §1, §2
# [9] = system: Streptococcus pneumoniae ATCC 49619; test: Antibacterial MIC (ISO 20776-1); format: cell-based; conditions: Streptococcus pneumoniae, ATCC49619
# From the text: as §1, §2
# [10] = system: Haemophilus influenzae ATCC 49766; test: Antibacterial MIC (ISO 20776-1); format: cell-based; conditions: ATCC49766
# From the text: as §1, §2
# [11] = system: Streptococcus pneumoniae 18778; test: Antibacterial MIC (ISO 20776-1); format: cell-based; conditions: Streptococcus pneumoniae, 18778
# From the text: as §1, §2
# [12] = system: Staphylococcus aureus ATCC 700698; test: Antibacterial MIC (ISO 20776-1); format: cell-based; conditions: ATCC700698; Staphylococcus aureus ATCC 700698, Vancomycin resistance, hVISA; read-out: MIC
# From the text: as §1, §2
# [13] = system: Enterococcus faecalis ATCC 29212; test: Antibacterial MIC (ISO 20776-1); format: cell-based; conditions: Enterococcus faecalis, ATCC29212
# From the text: as §1, §2
# [14] = system: Enterococcus faecalis ATCC 51299; test: Antibacterial MIC (ISO 20776-1); format: cell-based; conditions: ATCC51299; Enterococcus faecalis ATCC 51299, Vancomycin resistance, vanB
# From the text: as §1, §2
# [15] = system: Haemophilus influenzae 17428; test: Antibacterial MIC (ISO 20776-1); format: cell-based; conditions: Haemophilus influenzae 17428, Ampicillin resistance, PBP
# From the text: as §1, §2
# [16] = system: Staphylococcus aureus 11051; test: Antibacterial MIC (ISO 20776-1); format: cell-based; conditions: Staphylococcus aureus, 11051
# From the text: as §1, §2
# [17] = system: Enterococcus faecalis NCTC 12201; test: Antibacterial MIC (ISO 20776-1); format: cell-based; conditions: NCTC12201; Enterococcus faecalis NCTC 12201, Vancomycin resistance, vanA
# From the text: as §1, §2
# MRSA ATCC 33591 = test: In vitro antibacterial activity; format: cell-based; conditions: Staphylococcus aureus
# MRSA EM RSA = test: In vitro antibacterial activity; format: cell-based; conditions: Staphylococcus aureus
# From the text: as §1, §2
# S. epidermidis NTCT11077 = test: In vitro antibacterial activity; format: cell-based; conditions: Staphylococcus epidermidis, NTCT11077
# S. aureus ATCC 29213 = test: In vitro antibacterial activity; format: cell-based; conditions: Staphylococcus aureus, ATCC29213
# [18] = schistosomula, 72 hour culture, read-out: EC50 Motility
# [19] = schistosomula, 72 hour culture, read-out: EC50 Phenotype
smiles,measurement,setting,value
"O=[N+]([O-])c1ccc2nc(Nc3cc(F)cc(C(F)(F)F)c3)c(Nc3cc(F)cc(C(F)(F)F)c3)nc2c1 [Compound 8, N^2, N^3-bis(3-fluoro-5-(trifluoromethyl)phenyl)-6-nitroquinoxaline-2,3-diamine]",global H3K4 methylation compared to the negative control (DMSO),H3K4 methylation,significant % decrease
same,Selectivity Index Schistosomula,S. mansoni schistosomula,25
same,EC50,S. mansoni schistosomula; [18],430 nM
same,EC50,S. mansoni schistosomula; [19],370 nM
same,Selectivity Index Adult,S. mansoni adult worms; HepG2 CC50 over adult worm EC50,1549
same,EC50,"S. mansoni adult worms; Schistosoma mansoni, adult worms",6.5 nM
"O=C(Nc1ccc2nc(Nc3ccc(Cl)c(Cl)c3)c(Nc3ccc(Cl)c(Cl)c3)nc2c1)c1ccco1 [Compound 19, N-(2,3-bis((3,4-dichlorophenyl)amino)quinoxalin-6-yl)furan-2-carboxamide]",MIC90,B. cereus,< 62.5 µg/mL
same,MIC90,MRSA USA 300,62.5 µg/mL
same,MIC90,[1],> 125 µg/mL
same,MIC90,E. coli ATCC 25922,> 125 µg/mL
same,Motility (M) Mean score,[2],3.36
same,Phenotype (P) Mean score,[2],3.40
same,MIC90,[3],> 125 µg/mL
same,MIC,[4],8 µg/mL
same,MIC,[5],8 µg/mL
same,MIC,[6],8 µg/mL
same,MIC,[7],64 µg/mL
same,MIC,[8],1 µg/mL
same,MIC,[9],8 µg/mL
same,MIC,[10],64 µg/mL
same,MIC,[11],8 µg/mL
same,MIC,[12],8 µg/mL
same,MIC,[13],4 µg/mL
same,MIC,[14],2 µg/mL
same,MIC,[15],64 µg/mL
same,MIC,[16],8 µg/mL
same,MIC,[17],0.25 µg/mL
same,MIC90,MRSA ATCC 33591,15.6 µg/mL
same,MIC90,MRSA EM RSA,62.5 µg/mL
same,MIC90,S. epidermidis NTCT11077,125 µg/mL
same,Selectivity Index Schistosomula,S. mansoni schistosomula,8
same,EC50,"S. mansoni schistosomula; average of phenotype and motility, read-out: EC50 Schistosomula average",1940 nM
same,EC50,S. mansoni schistosomula; [18],1330 nM
same,EC50,S. mansoni schistosomula; [19],2540 nM
same,MIC90,S. aureus ATCC 29213,31.2 µg/mL
